Patent US4465676A, “16α Halogen substituted 3,17β-dihydroxy steroidal estrogens” (priority 1980, dated 1984)

Tests used:
[1] = target: T1, rat uterine cytosol (estrogen receptor) (Rattus norvegicus, UniProt P06211); assay: Binding to rat uterine cytosol, dextran-coated charcoal
T1 construct: incubated with cytoplasm from the uteri of rats; from tissue; host or cells: uterine cytosol of ovariectomized rats
T1 sequence (P06211 1-600): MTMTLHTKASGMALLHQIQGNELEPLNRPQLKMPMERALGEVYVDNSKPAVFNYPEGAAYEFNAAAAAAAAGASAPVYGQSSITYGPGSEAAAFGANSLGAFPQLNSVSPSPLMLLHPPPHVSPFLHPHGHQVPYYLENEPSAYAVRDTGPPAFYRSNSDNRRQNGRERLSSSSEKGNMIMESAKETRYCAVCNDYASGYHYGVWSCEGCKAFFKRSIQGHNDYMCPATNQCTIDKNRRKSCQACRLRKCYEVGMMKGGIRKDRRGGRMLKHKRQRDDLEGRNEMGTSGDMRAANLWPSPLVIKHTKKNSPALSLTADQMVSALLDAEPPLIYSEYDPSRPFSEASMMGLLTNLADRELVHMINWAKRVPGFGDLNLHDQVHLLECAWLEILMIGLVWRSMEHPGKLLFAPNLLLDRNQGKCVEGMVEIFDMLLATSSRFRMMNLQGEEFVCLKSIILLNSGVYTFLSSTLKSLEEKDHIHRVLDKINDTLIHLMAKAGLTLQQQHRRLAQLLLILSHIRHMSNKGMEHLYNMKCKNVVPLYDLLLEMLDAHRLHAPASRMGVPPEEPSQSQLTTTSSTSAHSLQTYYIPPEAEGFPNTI
Description: Metab. […] The homogenate was centrifuged at 4000 g for 10 minutes and the resulting supernatant for 60 minutes at 150,000 g. […] Samples were incubated for 4 hours at 0° to 2° C. Free steroid was removed by addition of 250 μl of a suspension of 0.5 percent dextran-coated charcoal. The tubes were mixed and then centrifuged at […] for 10 minutes.

Rat Uterine Receptor = assay: Tissue radioactivity 6 hours after injection into castrated female rats with and without DES; type: in vivo, Sprague-Dawley rats
Description: (§1) To deterine whether 16α-[^125 I]iodoestradiol would be recognized by estrogen-responsive tissues, it was injected into castrated female rats with and without diethylstilbestrol (DES); after 6 hours the concentration of radioactivity in the uterus was compared to that in several other tissues.
(§2) Female Sprague-Dawley rats (200 to 250 g) were castrated 48 hours before subcutaneous injection of ^125 I-labeled estradiol (1×10^6 count/min) dissolved in 10 μl of ethanol and 0.2 ml of saline. Twenty minutes before the administration of the iodinated estradiol, one group of rats (N=6) were injected with 5 μg of DES dissolved first in 50 μl of ethanol and then in 0.5 ml of saline. Another group of castrated rats (N=6) were injected with 0.5 ml of 10 percent ethanol in saline before receiving the radioactive steroid. The rats were killed 6 hours later and small pieces of the tissues were weighed and counted. All values are means ± standard deviations. To determine ether extractable radioactivity, the uterus, liver, and thyroid were homogenized in methanol and filtered. The filtrate was evaporated and the resulting residue was partitioned between ether and 0.1N NaHCO3. The ethereal solution was evaporated and counted and the results are tabulated below in Table I.
(§3) Several micrograms of 16α-iodoestradiol were added to the ether extract of the uterus and the mixture was submitted to high-pressure liquid chromatography. High pressure liquid chromatography was performed on a 250 by 4.6 mm Lichrosorb Diol column (merck) with methylene chloride at a flow rate of 1 ml/min. In this system 16α-iodoestradiol is eluted in 12 minutes and 16β-bromoestradiol in 8 minutes. […] The radioactivity in the thyroid gland, approximately 2000 count/min, is probably due to the uptake of free iodide arising from the metabolism of ^125 I-labeled estradiol in vivo and is equivalent to only 0.2 percent of the injected dose.

[2] = as above; type: in vivo, Sprague-Dawley rats
Description: as §1, §2, §3

C[C@]12CC[C@@H]3c4ccc(O)cc4CC[C@H]3[C@@H]1C[C@@H]([125I])[C@@H]2O [^125 I-E2, 16α-[^125 I]iodoestra-1,3,5(10)-triene-3,17β-diol]
Radioactivity specifically bound, percent of added [1]: 56% | Radioactivity Bound without DES ([1]; 98 μg cytosol protein, 4 hours at 0° to 2° C., added 69,600 (125I) or 63,600 (3H) count/min): 42,600 count/min | Radioactivity specifically bound ([1]; bound without DES minus bound with DES): 38,800 count/min | Radioactivity Bound with DES ([1]; with 7×10^-7 M DES (nonspecific binding)): 3,800 count/min | nature of the radioactive material in the uterus (Rat Uterine Receptor; HPLC of ether extract of uterus with 16α-iodoestradiol carrier): unmetabolized | Radioactivity, With DES (Rat Uterine Receptor; Heart, 5 μg DES, 6 hours): 26 ± 7 count/min per 100 mg of tissue | Radioactivity, Without DES (Rat Uterine Receptor; Heart, 6 hours): 23 ± 5 count/min per 100 mg of tissue | Radioactivity, With DES (Rat Uterine Receptor; Kidney, 5 μg DES, 6 hours): 75 ± 20 count/min per 100 mg of tissue | Radioactivity, Without DES (Rat Uterine Receptor; Kidney, 6 hours): 73 ± 33 count/min per 100 mg of tissue | Radioactivity, With DES (Rat Uterine Receptor; Liver, 5 μg DES, 6 hours): 425 ± 105 count/min per 100 mg of tissue | Radioactivity, Without DES (Rat Uterine Receptor; Liver, 6 hours): 446 ± 184 count/min per 100 mg of tissue | Radioactivity, With DES (Rat Uterine Receptor; Lung, 5 μg DES, 6 hours): 56 ± 11 count/min per 100 mg of tissue | Radioactivity, Without DES (Rat Uterine Receptor; Lung, 6 hours): 47 ± 23 count/min per 100 mg of tissue | Radioactivity, With DES (Rat Uterine Receptor; Muscle, 5 μg DES, 6 hours): 18 ± 12 count/min per 100 mg of tissue | Radioactivity, Without DES (Rat Uterine Receptor; Muscle, 6 hours): 33 ± 23 count/min per 100 mg of tissue | Radioactivity, With DES (Rat Uterine Receptor; Serum, 5 μg DES, 6 hours): 68 ± 6 count/min per 100 mg of tissue | Radioactivity, Without DES (Rat Uterine Receptor; Serum, 6 hours): 69 ± 11 count/min per 100 mg of tissue | Radioactivity, With DES (Rat Uterine Receptor; Thyroid, entire organ, 5 μg DES, 6 hours): 2287 ± 805 count/min | Radioactivity, Without DES (Rat Uterine Receptor; Thyroid, entire organ, 6 hours): 1839 ± 802 count/min | Radioactivity, With DES (Rat Uterine Receptor; Uterus, 5 μg DES 20 min before, 6 hours): 73 ± 8 count/min per 100 mg of tissue | Radioactivity, Without DES (Rat Uterine Receptor; Uterus, castrated rats, 6 hours after s.c. injection): 313 ± 150 count/min per 100 mg of tissue | radioactivity in the thyroid gland as share of injected dose (Rat Uterine Receptor; thyroid gland): 0.2% of the injected dose | radioactivity in the thyroid gland (Rat Uterine Receptor; thyroid gland, probably free iodide): approximately 2000 count/min | Ether-extractable radioactivity ([2]; Liver): 10-15% | Ether-extractable radioactivity ([2]; Thyroid): 0-1% | Ether-extractable radioactivity ([2]; Uterus): > 90%
